From ChEMBL document CHEMBL5291721, “A preclinical secondary pharmacology resource illuminates target-adverse drug reaction associations of marketed drugs” (Nat Commun, 2023)

Tests used:
Adenosine receptor A1 = biological target: T1, Adenosine receptor A1 (Homo sapiens, UniProt P30542)
T1 sequence (P30542 whole entry): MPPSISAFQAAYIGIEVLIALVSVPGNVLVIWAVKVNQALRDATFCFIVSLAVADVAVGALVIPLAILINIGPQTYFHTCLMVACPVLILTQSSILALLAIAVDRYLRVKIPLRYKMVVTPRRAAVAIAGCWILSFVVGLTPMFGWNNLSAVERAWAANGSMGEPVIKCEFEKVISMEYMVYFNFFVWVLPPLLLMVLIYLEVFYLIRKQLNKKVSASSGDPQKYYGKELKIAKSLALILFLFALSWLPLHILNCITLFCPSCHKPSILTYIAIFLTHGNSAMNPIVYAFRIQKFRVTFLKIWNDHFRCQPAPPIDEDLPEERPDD

Histamine H2 receptor = Histamine H2 receptor (Homo sapiens, UniProt P25021)
Chain of Histamine H2 receptor (P25021 whole entry): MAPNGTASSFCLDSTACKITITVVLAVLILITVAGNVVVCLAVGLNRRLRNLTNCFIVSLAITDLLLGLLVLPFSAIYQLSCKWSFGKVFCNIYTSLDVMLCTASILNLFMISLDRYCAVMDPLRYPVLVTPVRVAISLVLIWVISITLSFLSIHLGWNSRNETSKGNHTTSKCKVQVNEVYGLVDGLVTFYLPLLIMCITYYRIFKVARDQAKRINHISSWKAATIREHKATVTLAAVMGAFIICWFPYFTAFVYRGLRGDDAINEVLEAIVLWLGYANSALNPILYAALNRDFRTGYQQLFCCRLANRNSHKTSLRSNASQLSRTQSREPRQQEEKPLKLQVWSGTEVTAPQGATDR

[1] = biological target: Neurotensin receptor type 1 (Homo sapiens, UniProt P30989)
[2] = biological target: T2, Gastric inhibitory polypeptide receptor (Homo sapiens, UniProt P48546)
T2 sequence (P48546 whole entry): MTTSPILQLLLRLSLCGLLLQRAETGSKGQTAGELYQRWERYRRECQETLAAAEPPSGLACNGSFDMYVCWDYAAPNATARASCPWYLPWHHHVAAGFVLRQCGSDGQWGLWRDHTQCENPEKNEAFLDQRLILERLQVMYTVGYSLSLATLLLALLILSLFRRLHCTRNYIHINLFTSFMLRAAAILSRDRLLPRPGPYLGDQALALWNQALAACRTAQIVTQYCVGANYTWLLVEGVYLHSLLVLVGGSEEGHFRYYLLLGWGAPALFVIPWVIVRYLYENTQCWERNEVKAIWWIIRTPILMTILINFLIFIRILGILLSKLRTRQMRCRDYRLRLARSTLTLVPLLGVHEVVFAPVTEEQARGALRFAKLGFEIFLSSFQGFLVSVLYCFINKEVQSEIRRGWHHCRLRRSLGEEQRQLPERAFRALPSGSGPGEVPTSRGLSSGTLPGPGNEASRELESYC

[3] = biological target: Voltage-dependent N-type calcium channel subunit alpha-1B (Rattus norvegicus, UniProt Q02294); assay type: functional
Chain of Voltage-dependent N-type calcium channel subunit alpha-1B (Q02294 whole entry): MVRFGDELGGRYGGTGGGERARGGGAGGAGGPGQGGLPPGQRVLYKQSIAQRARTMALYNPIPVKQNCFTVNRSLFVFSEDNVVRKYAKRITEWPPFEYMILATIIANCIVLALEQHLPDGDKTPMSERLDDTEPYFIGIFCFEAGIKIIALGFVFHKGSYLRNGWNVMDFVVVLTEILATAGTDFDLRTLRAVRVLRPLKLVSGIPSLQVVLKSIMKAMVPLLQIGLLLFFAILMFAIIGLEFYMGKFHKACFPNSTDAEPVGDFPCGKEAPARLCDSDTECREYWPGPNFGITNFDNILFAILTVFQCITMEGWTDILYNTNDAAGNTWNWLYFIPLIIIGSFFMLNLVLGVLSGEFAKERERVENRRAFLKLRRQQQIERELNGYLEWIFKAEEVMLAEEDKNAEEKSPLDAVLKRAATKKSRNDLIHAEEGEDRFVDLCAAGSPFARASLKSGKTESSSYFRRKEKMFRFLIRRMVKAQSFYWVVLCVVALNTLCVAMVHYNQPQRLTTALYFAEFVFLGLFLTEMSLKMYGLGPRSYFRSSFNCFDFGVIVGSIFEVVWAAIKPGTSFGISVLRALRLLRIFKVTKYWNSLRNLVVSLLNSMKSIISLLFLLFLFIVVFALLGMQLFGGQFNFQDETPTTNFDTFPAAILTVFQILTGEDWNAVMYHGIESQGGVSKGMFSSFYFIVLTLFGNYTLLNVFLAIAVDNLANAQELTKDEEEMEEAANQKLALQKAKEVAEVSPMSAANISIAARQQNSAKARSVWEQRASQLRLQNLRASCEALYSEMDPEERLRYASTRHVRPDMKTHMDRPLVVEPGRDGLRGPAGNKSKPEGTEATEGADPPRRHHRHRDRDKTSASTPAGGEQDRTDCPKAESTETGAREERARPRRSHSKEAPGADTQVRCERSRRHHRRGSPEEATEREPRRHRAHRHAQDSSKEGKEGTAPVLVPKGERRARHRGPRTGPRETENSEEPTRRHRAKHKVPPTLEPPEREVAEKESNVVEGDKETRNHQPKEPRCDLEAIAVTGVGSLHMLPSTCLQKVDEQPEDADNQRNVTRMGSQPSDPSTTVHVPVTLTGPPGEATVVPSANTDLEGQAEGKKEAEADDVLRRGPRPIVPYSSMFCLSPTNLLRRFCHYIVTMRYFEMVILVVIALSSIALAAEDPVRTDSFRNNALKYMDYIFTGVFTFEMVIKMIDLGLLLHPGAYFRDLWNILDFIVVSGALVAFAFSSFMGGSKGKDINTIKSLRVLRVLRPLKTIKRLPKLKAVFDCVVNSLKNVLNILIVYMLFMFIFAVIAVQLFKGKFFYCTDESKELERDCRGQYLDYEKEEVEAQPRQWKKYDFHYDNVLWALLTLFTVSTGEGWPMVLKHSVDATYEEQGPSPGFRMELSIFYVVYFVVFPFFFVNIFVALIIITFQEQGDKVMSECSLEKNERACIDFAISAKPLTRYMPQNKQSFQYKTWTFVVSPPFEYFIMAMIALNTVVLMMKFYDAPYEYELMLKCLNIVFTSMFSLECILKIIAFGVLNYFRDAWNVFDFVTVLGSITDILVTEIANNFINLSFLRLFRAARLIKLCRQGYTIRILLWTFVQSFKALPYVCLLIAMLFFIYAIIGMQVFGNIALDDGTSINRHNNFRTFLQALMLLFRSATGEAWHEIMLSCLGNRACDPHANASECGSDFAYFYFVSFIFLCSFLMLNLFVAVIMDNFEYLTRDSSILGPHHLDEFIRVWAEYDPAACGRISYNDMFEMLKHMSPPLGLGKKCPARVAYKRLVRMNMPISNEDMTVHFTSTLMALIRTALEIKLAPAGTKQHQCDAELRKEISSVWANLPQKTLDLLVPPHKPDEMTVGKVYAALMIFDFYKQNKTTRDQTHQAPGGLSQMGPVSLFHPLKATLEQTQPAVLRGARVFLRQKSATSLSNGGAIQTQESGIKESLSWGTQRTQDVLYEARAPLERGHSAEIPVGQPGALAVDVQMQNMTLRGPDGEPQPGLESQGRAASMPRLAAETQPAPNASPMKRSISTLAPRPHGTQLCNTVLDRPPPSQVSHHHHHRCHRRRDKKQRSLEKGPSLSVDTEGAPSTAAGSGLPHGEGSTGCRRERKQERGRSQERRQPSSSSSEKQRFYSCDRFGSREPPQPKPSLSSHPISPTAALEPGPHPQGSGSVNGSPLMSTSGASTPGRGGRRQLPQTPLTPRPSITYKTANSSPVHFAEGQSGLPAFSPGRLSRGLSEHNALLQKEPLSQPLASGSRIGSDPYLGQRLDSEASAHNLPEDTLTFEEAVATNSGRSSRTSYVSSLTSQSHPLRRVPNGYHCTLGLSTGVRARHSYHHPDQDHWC

B1 bradykinin receptor = biological target: T3, B1 bradykinin receptor (Homo sapiens, UniProt P46663)
T3 sequence (P46663 whole entry): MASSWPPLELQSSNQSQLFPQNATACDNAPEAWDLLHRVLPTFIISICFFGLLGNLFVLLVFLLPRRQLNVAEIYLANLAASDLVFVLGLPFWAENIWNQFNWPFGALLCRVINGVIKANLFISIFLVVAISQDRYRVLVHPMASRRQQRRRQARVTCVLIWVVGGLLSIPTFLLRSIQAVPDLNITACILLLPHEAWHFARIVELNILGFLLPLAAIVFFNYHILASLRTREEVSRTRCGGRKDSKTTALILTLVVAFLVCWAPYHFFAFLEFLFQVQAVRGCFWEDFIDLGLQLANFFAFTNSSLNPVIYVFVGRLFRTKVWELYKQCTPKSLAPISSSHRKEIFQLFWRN

[4] = biological target: 5-hydroxytryptamine receptor 2B (Homo sapiens, UniProt P41595)
[5] = biological target: Gamma-aminobutyric acid receptor subunit alpha-1/alpha-2/beta-2/gamma-2 (Homo sapiens, UniProt P14867+P18507+P47869+P47870); assay type: functional, cell-based
Chain of Gamma-aminobutyric acid receptor subunit alpha-1/alpha-2/beta-2/gamma-2 (P14867 whole entry): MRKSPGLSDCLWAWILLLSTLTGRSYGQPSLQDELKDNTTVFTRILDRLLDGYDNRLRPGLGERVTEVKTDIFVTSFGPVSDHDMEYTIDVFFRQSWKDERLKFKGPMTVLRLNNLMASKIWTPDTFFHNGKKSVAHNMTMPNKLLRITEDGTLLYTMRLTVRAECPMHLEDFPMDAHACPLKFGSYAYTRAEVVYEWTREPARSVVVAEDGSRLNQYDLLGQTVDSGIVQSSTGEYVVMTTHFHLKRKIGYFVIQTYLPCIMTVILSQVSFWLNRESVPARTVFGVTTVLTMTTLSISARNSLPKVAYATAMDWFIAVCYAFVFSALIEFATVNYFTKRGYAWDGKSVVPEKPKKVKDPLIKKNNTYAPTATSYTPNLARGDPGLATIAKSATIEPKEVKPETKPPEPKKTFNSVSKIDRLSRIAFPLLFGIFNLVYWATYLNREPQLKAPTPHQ
Chain of Gamma-aminobutyric acid receptor subunit alpha-1/alpha-2/beta-2/gamma-2 (P47870 whole entry): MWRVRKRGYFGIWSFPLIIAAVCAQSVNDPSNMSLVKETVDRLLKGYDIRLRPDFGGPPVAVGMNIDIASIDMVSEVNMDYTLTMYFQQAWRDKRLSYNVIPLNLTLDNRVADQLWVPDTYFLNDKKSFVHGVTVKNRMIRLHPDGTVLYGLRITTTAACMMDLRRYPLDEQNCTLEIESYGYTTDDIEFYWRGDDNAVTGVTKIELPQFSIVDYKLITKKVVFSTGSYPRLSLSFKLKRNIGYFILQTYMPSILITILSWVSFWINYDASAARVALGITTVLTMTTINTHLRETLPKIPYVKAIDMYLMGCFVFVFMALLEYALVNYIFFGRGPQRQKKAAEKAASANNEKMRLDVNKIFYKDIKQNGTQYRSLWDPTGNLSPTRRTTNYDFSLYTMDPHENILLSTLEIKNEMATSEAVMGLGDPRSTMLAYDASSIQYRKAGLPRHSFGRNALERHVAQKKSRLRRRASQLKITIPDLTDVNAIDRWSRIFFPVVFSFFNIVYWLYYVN
Chain of Gamma-aminobutyric acid receptor subunit alpha-1/alpha-2/beta-2/gamma-2 (P18507 whole entry): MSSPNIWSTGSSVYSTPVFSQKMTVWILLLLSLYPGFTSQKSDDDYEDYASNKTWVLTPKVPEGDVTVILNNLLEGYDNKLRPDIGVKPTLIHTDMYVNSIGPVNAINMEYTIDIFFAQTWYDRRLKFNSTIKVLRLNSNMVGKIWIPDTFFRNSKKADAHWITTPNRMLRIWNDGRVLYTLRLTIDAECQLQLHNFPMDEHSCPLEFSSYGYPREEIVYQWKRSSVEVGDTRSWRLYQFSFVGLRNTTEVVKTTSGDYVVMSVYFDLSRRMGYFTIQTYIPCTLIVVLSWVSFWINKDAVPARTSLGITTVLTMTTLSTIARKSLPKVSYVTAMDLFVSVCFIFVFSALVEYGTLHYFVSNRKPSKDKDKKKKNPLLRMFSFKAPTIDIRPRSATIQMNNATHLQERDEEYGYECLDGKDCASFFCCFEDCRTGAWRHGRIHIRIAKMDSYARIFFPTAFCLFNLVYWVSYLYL
Chain of Gamma-aminobutyric acid receptor subunit alpha-1/alpha-2/beta-2/gamma-2 (P47869 whole entry): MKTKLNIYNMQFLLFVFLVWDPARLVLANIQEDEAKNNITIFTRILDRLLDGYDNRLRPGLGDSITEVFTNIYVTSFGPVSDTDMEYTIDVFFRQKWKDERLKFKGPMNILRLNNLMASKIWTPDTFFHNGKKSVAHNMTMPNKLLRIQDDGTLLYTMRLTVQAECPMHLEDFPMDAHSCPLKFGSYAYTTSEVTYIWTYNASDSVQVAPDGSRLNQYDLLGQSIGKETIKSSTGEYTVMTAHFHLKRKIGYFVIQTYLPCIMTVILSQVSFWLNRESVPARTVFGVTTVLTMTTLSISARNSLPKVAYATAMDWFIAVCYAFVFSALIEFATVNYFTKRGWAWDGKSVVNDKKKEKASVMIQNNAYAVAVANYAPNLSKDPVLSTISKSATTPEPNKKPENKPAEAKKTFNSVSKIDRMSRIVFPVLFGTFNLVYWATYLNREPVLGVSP

[6] = biological target: T4, Alpha-2B adrenergic receptor (Homo sapiens, UniProt P18089)
T4 sequence (P18089 whole entry): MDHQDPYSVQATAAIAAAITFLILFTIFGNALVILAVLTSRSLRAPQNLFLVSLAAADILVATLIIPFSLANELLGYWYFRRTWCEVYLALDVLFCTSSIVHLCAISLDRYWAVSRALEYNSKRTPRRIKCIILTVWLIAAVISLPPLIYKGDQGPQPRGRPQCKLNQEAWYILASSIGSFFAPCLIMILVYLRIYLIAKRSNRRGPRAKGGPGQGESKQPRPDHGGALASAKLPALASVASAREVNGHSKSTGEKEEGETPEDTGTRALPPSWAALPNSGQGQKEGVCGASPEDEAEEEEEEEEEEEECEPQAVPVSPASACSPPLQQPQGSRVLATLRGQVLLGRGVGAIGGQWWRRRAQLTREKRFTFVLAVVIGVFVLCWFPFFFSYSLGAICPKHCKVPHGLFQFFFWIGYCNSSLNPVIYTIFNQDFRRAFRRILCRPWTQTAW

[7] = biological target: T5, Muscarinic acetylcholine receptor M1 (Homo sapiens, UniProt P11229); assay type: functional
T5 sequence (P11229 whole entry): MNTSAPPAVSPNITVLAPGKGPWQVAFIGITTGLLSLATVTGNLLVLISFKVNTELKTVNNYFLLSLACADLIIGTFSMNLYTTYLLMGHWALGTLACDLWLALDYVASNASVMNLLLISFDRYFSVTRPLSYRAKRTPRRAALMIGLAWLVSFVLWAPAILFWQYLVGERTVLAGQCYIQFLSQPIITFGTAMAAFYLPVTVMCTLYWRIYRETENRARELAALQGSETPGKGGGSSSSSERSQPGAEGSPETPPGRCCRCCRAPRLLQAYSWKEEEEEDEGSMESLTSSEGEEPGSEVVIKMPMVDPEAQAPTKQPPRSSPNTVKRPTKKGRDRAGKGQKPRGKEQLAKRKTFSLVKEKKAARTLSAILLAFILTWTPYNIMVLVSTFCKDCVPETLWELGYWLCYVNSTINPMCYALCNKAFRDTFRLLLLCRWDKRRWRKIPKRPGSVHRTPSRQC

[8] = biological target: 5-hydroxytryptamine receptor 2A (Homo sapiens, UniProt P28223); assay type: functional, cell-based
Chain of 5-hydroxytryptamine receptor 2A (P28223 whole entry): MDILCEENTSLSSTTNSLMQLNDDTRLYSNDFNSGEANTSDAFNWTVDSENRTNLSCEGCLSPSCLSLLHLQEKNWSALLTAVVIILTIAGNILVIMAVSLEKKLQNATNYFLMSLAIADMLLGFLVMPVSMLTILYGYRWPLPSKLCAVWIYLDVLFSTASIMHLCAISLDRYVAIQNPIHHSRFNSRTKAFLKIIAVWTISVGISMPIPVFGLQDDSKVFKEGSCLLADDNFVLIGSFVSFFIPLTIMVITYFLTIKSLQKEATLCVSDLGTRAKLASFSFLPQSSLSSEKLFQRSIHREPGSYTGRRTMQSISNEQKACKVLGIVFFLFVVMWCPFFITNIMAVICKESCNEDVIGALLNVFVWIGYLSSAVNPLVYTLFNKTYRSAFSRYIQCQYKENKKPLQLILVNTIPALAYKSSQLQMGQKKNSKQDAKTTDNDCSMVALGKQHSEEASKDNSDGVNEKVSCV
Note: assay procedure not described here.

N#Cc1ccc2c(c1)N(CCCN1CCC(O)CC1)c1ccccc1S2 [PERICIAZINE]
AC50 (Adenosine receptor A1): > 30 µM

Cc1onc(-c2ccccc2)c1-c1ccc(S(N)(=O)=O)cc1 [VALDECOXIB]
AC50 (Histamine H2 receptor): > 10 µM
AC50 [1]: > 30 µM
AC50 [2]: > 30 µM
AC50 [3]: > 10 µM
AC50 (B1 bradykinin receptor): > 30 µM
AC50 [4]: > 10 µM

C/C=C/C/C=C/CCC(=O)[C@H]1O[C@H]1C(N)=O [CERULENIN]
AC50 (Adenosine receptor A1): > 30 µM

CN(C)CCC[C@@]1(c2ccc(F)cc2)OCc2cc(C#N)ccc21 [ESCITALOPRAM]
AC50 [5]: > 30 µM

COc1cc2nc(N3CCN(C(=O)C4CCCO4)CC3)nc(N)c2cc1OC (stereo not given) [TERAZOSIN]
AC50 (Histamine H2 receptor): > 10 µM
AC50 [1]: > 30 µM
AC50 (Adenosine receptor A1): > 30 µM
AC50 [2]: > 30 µM
AC50 [3]: > 10 µM
AC50 (B1 bradykinin receptor): > 30 µM
AC50 [4]: > 10 µM

Nc1ccc(S(=O)(=O)Nc2nccs2)cc1 [SULFATHIAZOLE]
AC50 (Histamine H2 receptor): > 10 µM
AC50 [1]: > 30 µM
AC50 [2]: > 30 µM
AC50 [3]: > 10 µM
AC50 (B1 bradykinin receptor): > 30 µM
AC50 [4]: > 10 µM

CC(C)N(CCC(C(N)=O)(c1ccccc1)c1ccccn1)C(C)C (stereo not given) [DISOPYRAMIDE]
AC50 [6]: > 10 µM
AC50 [7]: > 10 µM
AC50 [1]: > 30 µM
AC50 [2]: > 30 µM
AC50 [3]: > 10 µM
AC50 (B1 bradykinin receptor): > 30 µM

CCCC(CCC)C(=O)O [VALPROIC ACID]
AC50 [1]: > 30 µM
AC50 (Adenosine receptor A1): > 30 µM
AC50 [2]: > 30 µM
AC50 [3]: > 10 µM
AC50 (B1 bradykinin receptor): > 30 µM
AC50 [4]: > 10 µM

C[C@@H](NCCCc1cccc(C(F)(F)F)c1)c1cccc2ccccc12
AC50 [6]: > 30 µM
AC50 [7]: 17 µM
AC50 [8]: > 30 µM
AC50 [5]: > 30 µM

CC[C@@]1(O)C(=O)OCc2c1cc1n(c2=O)Cc2cc3c([N+](=O)[O-])cccc3nc2-1 [RUBITECAN]
AC50 (Adenosine receptor A1): > 30 µM

C=C[C@H]1C[N@@]2CC[C@H]1C[C@@H]2[C@@H](O)c1ccnc2ccc(OC)cc12 [QUINIDINE]
AC50 [6]: 6.5 µM
AC50 [7]: > 10 µM
AC50 [4]: 2 µM

C[C@H]1c2cccc(O)c2C(=O)C2=C(O)[C@]3(O)C(=O)C(C(N)=O)=C(O)[C@@H](N(C)C)[C@@H]3[C@@H](O)[C@@H]21 [DOXYCYCLINE]
AC50 (Histamine H2 receptor): > 10 µM
AC50 [1]: > 30 µM
AC50 [2]: > 30 µM
AC50 [3]: > 10 µM
AC50 (B1 bradykinin receptor): > 30 µM
AC50 [4]: > 10 µM

CO[C@H]1/C=C/O[C@@]2(C)Oc3c(C)c(O)c4c(O)c(c(/C=N/N5CCN(C)CC5)c(O)c4c3C2=O)NC(=O)/C(C)=C\C=C\[C@H](C)[C@H](O)[C@@H](C)[C@@H](O)[C@@H](C)[C@H](OC(C)=O)[C@@H]1C [RIFAMPIN]
AC50 (Histamine H2 receptor): > 10 µM
AC50 [1]: > 30 µM
AC50 [2]: > 30 µM
AC50 [3]: > 10 µM
AC50 (B1 bradykinin receptor): 14.2 µM
AC50 [4]: > 10 µM

CCOC(=O)c1c(C)cc2c(CO)n[nH]c(=O)c2c1C [OXAGRELATE]
AC50 (Adenosine receptor A1): 25.9 µM

CC(=O)O[C@]1(C(C)=O)CC[C@H]2[C@@H]3C=C(C)C4=CC(=O)CC[C@@H]4[C@H]3CC[C@@]21C [NOMEGESTROL ACETATE]
AC50 [6]: > 30 µM
AC50 [7]: > 30 µM
AC50 (Adenosine receptor A1): > 30 µM
AC50 [8]: > 30 µM

C[C@]12C=CC(=O)N[C@@H]1CC[C@@H]1[C@@H]2CC[C@]2(C)[C@@H](C(=O)Nc3cc(C(F)(F)F)ccc3C(F)(F)F)CC[C@@H]12 [DUTASTERIDE]
AC50 [6]: > 10 µM
AC50 [7]: > 10 µM
AC50 [8]: > 10 µM

COc1ccccc1Oc1c(NS(=O)(=O)c2ccc(C(C)(C)C)cc2)nc(-c2ncccn2)nc1OCCO [BOSENTAN]
AC50 [6]: > 10 µM
AC50 [7]: > 10 µM
AC50 (Histamine H2 receptor): > 10 µM
AC50 [1]: > 30 µM
AC50 [2]: > 30 µM
AC50 [3]: > 10 µM
AC50 (B1 bradykinin receptor): > 30 µM
AC50 [4]: > 10 µM

FC(F)(F)c1ccc(CNc2ccc(Cc3c[nH]c4ncc(Cl)cc34)cn2)cn1 [PEXIDARTINIB]
AC50 (Adenosine receptor A1): 27.7 µM

CCN1CCN(Cc2ccc(Nc3ncc(F)c(-c4cc(F)c5nc(C)n(C(C)C)c5c4)n3)nc2)CC1 [ABEMACICLIB]
AC50 [6]: > 30 µM
AC50 [7]: > 30 µM
AC50 [8]: 28 µM
AC50 [5]: > 30 µM

COc1ccc(CC2c3cc(OC)c(OC)cc3CC[N+]2(C)CCC(=O)OCCCCCOC(=O)CC[N+]2(C)CCc3cc(OC)c(OC)cc3C2Cc2ccc(OC)c(OC)c2)cc1OC (stereo not given)
AC50 [6]: > 30 µM
AC50 [7]: > 30 µM
AC50 [8]: > 30 µM

CC(C(=O)O)c1ccc2c(c1)[nH]c1ccc(Cl)cc12 (stereo not given) [CARPROFEN]
AC50 [6]: > 10 µM
AC50 [7]: > 10 µM
AC50 [8]: > 10 µM

OC[C@@H](O)[C@@H](O)[C@H](O)[C@@H](O)CO [SORBITOL]
AC50 (Adenosine receptor A1): > 30 µM

CN1C[C@H](C(=O)N[C@]2(C)O[C@@]3(O)[C@@H]4CCCN4C(=O)[C@H](Cc4ccccc4)N3C2=O)C=C2c3cccc4[nH]cc(c34)C[C@H]21 [ERGOTAMINE]
AC50 [5]: > 30 µM

CC(C)(O)CNc1nc(Nc2ccnc(C(F)(F)F)c2)nc(-c2cccc(C(F)(F)F)n2)n1 [ENASIDENIB]
AC50 (Adenosine receptor A1): 1.29 µM

COc1ccccc1OCCNCC(O)COc1cccc2[nH]c3ccccc3c12 (stereo not given) [CARVEDILOL]
AC50 (Histamine H2 receptor): 1.56 µM
AC50 [1]: > 30 µM
AC50 [2]: > 30 µM
AC50 [3]: > 10 µM
AC50 (B1 bradykinin receptor): > 30 µM
AC50 [4]: 0.0101 µM

CN1C(C(=O)Nc2ccccn2)=C(O)c2ccccc2S1(=O)=O [PIROXICAM]
AC50 (Adenosine receptor A1): > 30 µM

CCc1nc(C(N)=O)c(Nc2ccc(N3CCC(N4CCN(C)CC4)CC3)c(OC)c2)nc1NC1CCOCC1 [GILTERITINIB]
AC50 (Adenosine receptor A1): > 30 µM

CC[C@H]1OC(=O)[C@H](C)C(=O)[C@H](C)[C@@H](O[C@@H]2O[C@H](C)C[C@H](N(C)C)[C@H]2O)[C@](C)(OC)C[C@@H](C)C(=O)[C@H](C)[C@H]2N(CCCCn3cnc(-c4cccnc4)c3)C(=O)O[C@]12C [TELITHROMYCIN]
AC50 (Adenosine receptor A1): > 30 µM

O=C1CN(/N=C/c2ccc(-c3ccc([N+](=O)[O-])cc3)o2)C(O)=N1 [DANTROLENE]
AC50 [6]: > 10 µM
AC50 [7]: > 10 µM
AC50 [8]: > 10 µM

CC(=O)Oc1cc(C(F)(F)F)ccc1C(=O)O [TRIFLUSAL]
AC50 (Adenosine receptor A1): > 30 µM

C#C[C@]1(O)CC[C@H]2[C@@H]3CCC4=CC(=O)CC[C@@H]4[C@H]3C(=C)C[C@@]21CC [ETONOGESTREL]
AC50 [6]: > 30 µM
AC50 [7]: > 30 µM
AC50 (Adenosine receptor A1): > 30 µM
AC50 [8]: > 30 µM

O=C(O)CO [GLYCOLIC ACID]
AC50 (Adenosine receptor A1): > 30 µM

CCN(CC)CCNC(=O)c1c(C)[nH]c(/C=C2\C(=O)Nc3ccc(F)cc32)c1C [SUNITINIB]
AC50 [6]: 4.37 µM
AC50 [4]: 0.158 µM

CC(C)Cc1ccc(C(C)C(=O)O)cc1 (stereo not given) [IBUPROFEN]
AC50 (Histamine H2 receptor): > 10 µM
AC50 [1]: > 30 µM
AC50 [2]: > 30 µM
AC50 [3]: > 10 µM
AC50 (B1 bradykinin receptor): > 30 µM
AC50 [4]: > 10 µM
